Molecular target: galectin-3 (Homo sapiens (Human), UniProt P17931)
Assay: Fluorescence anisotropy assay of galectin-3 affinity (compound inhibits galectin binding to a fluorescein tagged saccharide probe)
Settings: high affinity probe, 50 nM galectin-3, 100 nM albumin
Description: 100 nM albumin was included as a carrier to prevent protein loss at such low concentration of galectin.

Chain of galectin-3 (P17931 whole entry): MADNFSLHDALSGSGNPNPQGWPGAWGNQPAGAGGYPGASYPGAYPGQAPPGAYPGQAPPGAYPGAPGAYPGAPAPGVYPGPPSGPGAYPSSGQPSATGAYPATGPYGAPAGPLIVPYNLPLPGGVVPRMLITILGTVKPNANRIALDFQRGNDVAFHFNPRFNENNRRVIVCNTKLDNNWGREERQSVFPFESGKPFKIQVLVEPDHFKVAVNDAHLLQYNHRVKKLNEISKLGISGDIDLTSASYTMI

Row | SMILES | Kd [µM]
1 | OC[C@H]1O[C@H](Sc2ccc(OC(F)(F)F)cc2)[C@H](O)[C@@H](n2cc(-c3cc(F)c(F)c(F)c3)nn2)[C@H]1O [Example 31, 4-Trifluoromethoxyphenyl 3-deoxy-3-[4-(3,4,5-trifluorophenyl)-1H-1,2,3-triazol-1-yl]-1-thio-α-D-galactopyranoside] | 0.28
2 | OC[C@H]1O[C@H](Oc2ccccc2)[C@H](O)[C@@H](n2cc(-c3cc(F)c(F)c(F)c3)nn2)[C@H]1O [Example 32, Phenyl 3-deoxy-3-[4-(3,4,5-trifluorophenyl)-1H-1,2,3-triazol-1-yl]-α-D-galactopyranoside] | 1
3 | OC[C@H]1O[C@H](Oc2cccc(Cl)c2)[C@H](O)[C@@H](n2cc(-c3cc(F)c(F)c(F)c3)nn2)[C@H]1O [Example 33, 3-Chlorophenyl 3-deoxy-3-[4-(3,4,5-trifluorophenyl)-1H-1,2,3-triazol-1-yl]-α-D-galactopyranoside] | 0.25
4 | OC[C@H]1O[C@H](Oc2ccc(Cl)cc2)[C@H](O)[C@@H](n2cc(-c3cc(F)c(F)c(F)c3)nn2)[C@H]1O [Example 34, 4-Chlorophenyl 3-deoxy-3-[4-(3,4,5-trifluorophenyl)-1H-1,2,3-triazol-1-yl]-α-D-galactopyranoside] | 0.57
5 | OC[C@H]1O[C@H](SC2CCCCC2)[C@H](O)[C@@H](n2cc(-c3cc(F)c(F)c(F)c3)nn2)[C@H]1O [Example 35, Cyclohexyl 3-deoxy-3-[4-(3,4,5-trifluorophenyl)-1H-1,2,3-triazol-1-yl]-1-thio-α-D-galactopyranoside] | 0.44
6 | OC[C@H]1O[C@H](Sc2cc(Cl)c(Cl)cc2Cl)[C@H](O)[C@@H](n2cc(-c3cc(F)c(F)c(F)c3)nn2)[C@H]1O [Example 36, 2,4,5-Trichlorophenyl 3-deoxy-3-[4-(3,4,5-trifluorophenyl)-1H-1,2,3-triazol-1-yl]-1-thio-α-D-galactopyranoside] | 0.06
7 | OC[C@H]1O[C@H](Sc2cc(Cl)ccc2Cl)[C@H](O)[C@@H](n2cc(-c3cc(F)c(F)c(F)c3)nn2)[C@H]1O [Example 37, 2,5-Dichlorophenyl 3-deoxy-3-[4-(3,4,5-trifluorophenyl)-1H-1,2,3-triazol-1-yl]-1-thio-α-D-galactopyranoside] | 0.084
8 | OC[C@H]1O[C@H](Sc2cccc(O)c2)[C@H](O)[C@@H](n2cc(-c3cc(F)c(F)c(F)c3)nn2)[C@H]1O [Example 38, 3-Hydroxy-phenyl 3-deoxy-3-[4-(3,4,5-trifluorophenyl)-1H-1,2,3-triazol-1-yl]-1-thio-α-D-galactopyranoside] | 0.49
9 | [O-][S+](c1cccc(Br)c1)[C@H]1O[C@H](CO)[C@H](O)[C@H](n2cc(-c3cc(F)c(F)c(F)c3)nn2)[C@H]1O (stereo partly drawn) [Example 39, 3-Bromophenyl 3-deoxy-3-[4-(3,4,5-trifluorophenyl)-1H-1,2,3-triazol-1-yl]-α-D-galactopyranosyl sulfoxide] | 0.023
10 | OCC1O[C@H](SCCc2ccccc2)C(O)[C@@H](n2cc(-c3cc(F)c(F)c(F)c3)nn2)[C@H]1O (stereo partly drawn) [Example 40, 2-Phenethyl 3-deoxy-3-[4-(3,4,5-trifluorophenyl)-1H-1,2,3-triazol-1-yl]-1-thio-α-D-galactopyranoside] | 0.48
11 | [O-][S+](c1ccc(Cl)c(Cl)c1)[C@H]1O[C@H](CO)[C@H](O)[C@H](n2cc(-c3c(F)c(F)c(F)c(F)c3F)nn2)[C@H]1O (stereo partly drawn) [Example 42, 3,4-Dichlorophenyl 3-deoxy-3-[4-(2,3,4,5,6-pentafluorophenyl)-1H-1,2,3-triazol-1-yl]-α-D-galactopyranosyl sulfoxide] | 0.002

Continued, values first:

Row | Kd [µM] | SMILES
12 | 0.013 | O=S(=O)(c1ccc(Cl)c(Cl)c1)[C@H]1O[C@H](CO)[C@H](O)[C@H](n2cc(-c3c(F)c(F)c(F)c(F)c3F)nn2)[C@H]1O [Example 53, 3,4-Dichlorophenyl 3-deoxy-3-[4-(2,3,4,5,6-pentafluorophenyl)-1H-1,2,3-triazol-1-yl]-α-D-galactopyranosyl sulfone]
13 | 0.024 | OC[C@H]1O[C@H](Sc2ccc(F)c(Br)c2)[C@H](O)[C@@H](n2cc(-c3cc(F)c(F)c(F)c3)nn2)[C@H]1O [Example 60, 3-Bromo-4-fluorophenyl 3-deoxy-3-[4-(3,4,5-trifluorophenyl)-1H-1,2,3-triazol-1-yl]-1-thio-α-D-galactopyranoside]
14 | 0.084 | COc1ccc(Cl)cc1S[C@H]1OC(CO)[C@H](O)[C@H](n2cc(-c3cc(F)c(F)c(F)c3)nn2)C1O (stereo partly drawn) [Example 65, 5-Chloro-2-methoxyphenyl 3-deoxy-1-thio-3-[4-(3,4,5-trifluorophenyl)-1H-1,2,3-triazol-1-yl]-α-D-galactopyranoside]
15 | 0.24 | OCC1O[C@H](SC2CCCC(F)(F)C2)C(O)[C@@H](n2cc(-c3cc(F)c(F)c(F)c3)nn2)[C@H]1O (stereo partly drawn) [Example 76, 3,3′-difluoro-cyklohexyl 3-deoxy-3-[4-(3,4,5-trifluorophenyl)-1H-1,2,3-triazol-1-yl]-1-thio-α-D-galactopyranoside]
16 | 0.031 | O=S(=O)(c1cncc(Br)c1)[C@H]1O[C@H](CO)[C@H](O)[C@H](n2cc(-c3cc(F)c(F)c(F)c3)nn2)[C@H]1O [Example 92, 5-Bromopyridin-3-yl 3-deoxy-3-[4-(3,4,5-trifluorophenyl)-1H-1,2,3-triazol-1-yl]-α-D-galactopyranosyl sulfone]
17 | 0.96 | CN(C)c1cccc2cc(S(=O)(=O)[C@H]3OC(CO)[C@H](O)[C@H](n4cc(-c5cc(F)c(F)c(F)c5)nn4)C3O)ccc12 (stereo partly drawn) [Example 95, 5-Dimethylamino-naphtalen-2-yl 3-deoxy-3-[4-(3,4,5-trifluorophenyl)-1H-1,2,3-triazol-1-yl]-α-D-galactopyranosyl sulfone]
18 | 3.5 | O=C(N[C@@H]1C(O)[C@@H](Sc2ccc(Cl)c(Cl)c2)OC(CO)[C@@H]1O)c1cc(F)c(F)c(F)c1 (stereo partly drawn) [Example 96, 3,4-dichlorophenyl-3-deoxy-3-(3,4,5-trifluorobenzamido)-1-thio-α-D-galactopyranoside]
19 | 3.5 | CCOC(=O)c1cn([C@@H]2[C@@H](O)[C@@H](Sc3ccc(Cl)c(Cl)c3)O[C@H](CO)[C@@H]2O)nn1 [Example 97, 3,4-Dichlorophenyl 3-deoxy-3-[4-(ethoxycarbonyl)-1H-1,2,3-triazol-1-yl]-1-thio-α-D-galactopyranoside]
20 | 0.92 | O=c1oc2ccc(F)c(F)c2cc1CO[C@@H]1[C@@H](O)[C@@H](Sc2ccc(Cl)c(Cl)c2)O[C@H](CO)[C@@H]1O [Example 99, 3,4-Dichlorophenyl 3-O-[(5,6-Difluoro-2-oxo-3-chromenyl)methyl]-1-thio-α-D-galactopyranoside]
21 | 1.01 | CCCC(=O)c1cn([C@@H]2[C@@H](O)[C@@H](Sc3ccc(Cl)c(Cl)c3)O[C@H](CO)[C@@H]2O)nn1 [Example 102, 3,4-Dichlorophenyl 3-deoxy-3-[4-(propyl-carbonyl)-1H-1,2,3-triazol-1-yl]-1-thio-α-D-galactopyranoside]

System: not listed separately
Assay: Pharmacokinetic studies in mice
Settings: mouse, in vivo, 10 mg/kg, oral, read-out: Bioavailability (F)
Text: This is exemplified by Example 9 3,4-Dichlorophenyl 3-deoxy-3-[4-(3,4,5-trifluorophenyl)-1H-1,2,3-triazol-1-yl]-1-thio-α-D-galactopyranoside in the table below.

Row | bioavailability [%] | SMILES
22 | 75 | OC[C@H]1O[C@H](Sc2ccc(Cl)c(Cl)c2)[C@H](O)[C@@H](n2cc(-c3cc(F)c(F)c(F)c3)nn2)[C@H]1O [Example 9, 3,4-Dichlorophenyl 3-deoxy-3-[4-(3,4,5-trifluorophenyl)-1H-1,2,3-triazol-1-yl]-1-thio-α-D-galactopyranoside]

Same assay, conditions: mouse, in vivo, po, 10 mg/kg

Row | Cmax [µM] | SMILES
23 | 16 | OC[C@H]1O[C@H](Sc2ccc(Cl)c(Cl)c2)[C@H](O)[C@@H](n2cc(-c3cc(F)c(F)c(F)c3)nn2)[C@H]1O [Example 9, 3,4-Dichlorophenyl 3-deoxy-3-[4-(3,4,5-trifluorophenyl)-1H-1,2,3-triazol-1-yl]-1-thio-α-D-galactopyranoside]

Same assay, conditions: mouse, in vivo, read-out: Clearance (CL)

Row | clearance [mL/min/kg] | SMILES
24 | 1.2 | OC[C@H]1O[C@H](Sc2ccc(Cl)c(Cl)c2)[C@H](O)[C@@H](n2cc(-c3cc(F)c(F)c(F)c3)nn2)[C@H]1O [Example 9, 3,4-Dichlorophenyl 3-deoxy-3-[4-(3,4,5-trifluorophenyl)-1H-1,2,3-triazol-1-yl]-1-thio-α-D-galactopyranoside]

Same assay, conditions: mouse, in vivo, read-out: Halflife (t½) (converted)

Row | half-life [h] | SMILES
25 | 4.5 | OC[C@H]1O[C@H](Sc2ccc(Cl)c(Cl)c2)[C@H](O)[C@@H](n2cc(-c3cc(F)c(F)c(F)c3)nn2)[C@H]1O [Example 9, 3,4-Dichlorophenyl 3-deoxy-3-[4-(3,4,5-trifluorophenyl)-1H-1,2,3-triazol-1-yl]-1-thio-α-D-galactopyranoside]

Molecular target: galectins
Assay: not given
Settings: all galectins; cited from earlier work

Row | SMILES | Kd [µM]
26 | OC[C@H]1O[C@@H](O[C@H]2[C@H](O)[C@@H](O)C(O)O[C@@H]2CO)[C@H](O)[C@@H](O)[C@H]1O (stereo partly drawn) [lactose] | 500 to 1000

Same assay, conditions: galectins; compared with lactose; cited from earlier work

Row | SMILES | affinity relative to lactose (times lower)
27 | O=C[C@H](O)[C@@H](O)[C@@H](O)[C@H](O)CO [D-galactose, D-(+)-galactose] | 50-100 times lower
